From patent US20220151274A1, “PREPARATIONS WITH C-METHYL FLAVONOIDS” (BRAIN AG, priority 2018, published 2022)

Assay: Tasting of high-purity Pinoquercetin + potassium chloride (KCl)
Type: in vivo
Conditions: for bitterness of KCl is reduced by the product, share of responses: 14 responses
Procedure: The sensory evaluation of the samples was performed twice by a team of seven experienced assessors.

[1] = 10 μM (3.2 ppm) with 1.5% potassium chloride in spring water
[2] = 25 μM (8 ppm) with 1.5% potassium chloride in spring water
[3] = 50 μM (16 ppm) with 1.5% potassium chloride in spring water

In the case of `Cc1c(O)cc2oc(-c3ccc(O)c(O)c3)c(O)c(=O)c2c1O` [Pinoquercetin], the “bitterness of KCl is reduced by the product, share of responses” value (from here on “bitterness of KCl is reduced”) (1 μM (0.3 ppm) with 1.5% potassium chloride in spring water) is reported as “product in 64% of responses average”, the dominant flavour [1] is reported as “sure dominant flavour: saltiness” and the “bitterness of KCl is reduced” value [1] is reported as “product in 64% of responses average”. For the same molecule, the dominant flavour [2] was “flavour: saltiness”, the “bitterness of KCl is reduced” value [2] was “product in 64% of responses average” and the dominant flavour [3] was “flavour: saltiness”. The “bitterness of KCl is reduced” value [3] was “product in 71% of responses average”.
